Results taken from patent publication US20240393292A1, “ALLERGY ANTIGEN AND EPITOPE THEREOF” (HOYU CO., LTD., priority 2019, published 2024).
One block for each substance: values may come before it.

Tested on: IgE antibodies from patients
Experiment: Wheat epitope mapping (2): overlapping 10-amino-acid peptide fragments shifted by one amino acid;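 note: key of grades: preferably = shorter partial sequence still acting as epitope; more preferably = sequence improving IgE binding; key = particularly important sequence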
Type: binding, human
In short: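 Residual binding was banded as <30% none, 30–<50% poor, 50–<70% somewhat poor and ≥70% retained, relative to the parent overlapping sequence set to 100%. Values were chemiluminescent IgE signals from patient sera after subtracting secondary-antibody-only controls. The peptides were spot-synthesised 10-mers shifted by one amino acid.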

[1] = serum of patient G2 (adult, general immediate type allergy to wheat)
[2] = serum of patient G4 (adult, general immediate type allergy to wheat)
[3] = serum of patient G7 (adult, general immediate type allergy to wheat)
[4] = serum of patient G9 (adult, general immediate type allergy to wheat)

epitope sequence binding to IgE antibody, rank (Key/Preferably/More preferably) (serum of patient P26 (WDEIA)): Preferably
Substance: 1811 (ALPKFLKNG; REGION 1..9: note = epitope) [compound 1811]

epitope sequence binding to IgE antibody, rank (Key/Preferably/More preferably) (serum of patient P27 (WDEIA)): Key
Substance: 1814 (KELEAL; REGION 1..6: note = epitope) [compound 1814]

epitope sequence binding to IgE antibody, rank (Key/Preferably/More preferably) (serum of patient P29 (WDEIA)): Key
Substance: 1815 (PKFLK; REGION 1..5: note = epitope) [compound 1815]

epitope sequence binding to IgE antibody, rank (Key/Preferably/More preferably) (serum of patient P30 (WDEIA)): Key
Substance: 1816 (LEALPKFL; REGION 1..8: note = epitope) [compound 1816]

epitope sequence binding to IgE antibody, rank (Key/Preferably/More preferably) (serum of patient P32 (WDEIA)): Key
Substance: 1817 (SGKELE; REGION 1..6: note = epitope) [compound 1817]

epitope sequence binding to IgE antibody, rank (Key/Preferably/More preferably) (serum of patient P32 (WDEIA)): Key
Substance: 1818 (PKFL; REGION 1..4: note = epitope) [compound 1818]

epitope sequence binding to IgE antibody, rank (Key/Preferably/More preferably) (serum of patient P33 (WDEIA)): Key
Substance: 1819 (SGKELEALPK; REGION 1..10: note = epitope) [compound 1819]

epitope sequence binding to IgE antibody, rank (Key/Preferably/More preferably) (serum of patient P33 (WDEIA)): Key
Substance: 1820 (PKFLK; REGION 1..5: note = epitope) [compound 1820]

epitope sequence binding to IgE antibody, rank (Key/Preferably/More preferably) (serum of patient P34 (WDEIA)): Key
Substance: 1821 (SGKELEALPK; REGION 1..10: note = epitope) [compound 1821]

epitope sequence binding to IgE antibody, rank (Key/Preferably/More preferably) (serum of patient P35 (WDEIA)): Key
Substance: 1822 (SGKELEALPK; REGION 1..10: note = epitope) [compound 1822]

epitope sequence binding to IgE antibody, rank (Key/Preferably/More preferably) (serum of patient P35 (WDEIA)): Key
Substance: 1823 (LPKFL; REGION 1..5: note = epitope) [compound 1823]

epitope sequence binding to IgE antibody, rank (Key/Preferably/More preferably) (serum of patient P36 (WDEIA)): Key
Substance: 1824 (LPKFLK; REGION 1..6: note = epitope) [compound 1824]

epitope sequence binding to IgE antibody, rank (Key/Preferably/More preferably) (serum of patient P52 (child, general immediate type allergy to wheat)): Key
Substance: 1825 (LPKF; REGION 1..4: note = epitope) [compound 1825]

epitope sequence binding to IgE antibody, rank (Key/Preferably/More preferably) (serum of patient G1 (adult, general immediate type allergy to wheat)): Key
Substance: 1826 (PKFL; REGION 1..4: note = epitope) [compound 1826]

epitope sequence binding to IgE antibody, rank (Key/Preferably/More preferably) [2]: Key
Substance: 1828 (LEALPKFLK; REGION 1..9: note = epitope) [compound 1828]

epitope sequence binding to IgE antibody, rank (Key/Preferably/More preferably) (serum of patient G6 (adult, general immediate type allergy to wheat)): Key
Substance: 1830 (LPKFL; REGION 1..5: note = epitope) [compound 1830]

epitope sequence binding to IgE antibody, rank (Key/Preferably/More preferably) [3]: Key
Substance: 1832 (KELE; REGION 1..4: note = epitope) [compound 1832]

epitope sequence binding to IgE antibody, rank (Key/Preferably/More preferably) [3]: Key
Substance: 1833 (KFLKN; REGION 1..5: note = epitope) [compound 1833]

epitope sequence binding to IgE antibody, rank (Key/Preferably/More preferably) (serum of patient P3 (WDEIA)): Preferably
Substance: 1837 (VRTLQRT; REGION 1..7: note = epitope) [compound 1837]

epitope sequence binding to IgE antibody, rank (Key/Preferably/More preferably) (serum of patient P3 (WDEIA)): Key
Substance: 1838 (RTLQ; REGION 1..4: note = epitope) [compound 1838]

epitope sequence binding to IgE antibody, rank (Key/Preferably/More preferably) (serum of patient P5 (WDEIA)): Preferably
Substance: 1839 (TVRTLQR; REGION 1..7: note = epitope) [compound 1839]

epitope sequence binding to IgE antibody, rank (Key/Preferably/More preferably) (serum of patient P5 (WDEIA)): Key
Substance: 1840 (RTLQ; REGION 1..4: note = epitope) [compound 1840]

epitope sequence binding to IgE antibody, rank (Key/Preferably/More preferably) (serum of patient P8 (WDEIA)): Preferably
Substance: 1841 (YTVRTLQ; REGION 1..7: note = epitope) [compound 1841]

epitope sequence binding to IgE antibody, rank (Key/Preferably/More preferably) (serum of patient P8 (WDEIA)): Key
Substance: 1842 (TVRTLQ; REGION 1..6: note = epitope) [compound 1842]

More lines, now with the values behind:

Substance: 1777 (KEVSSYLKK; REGION 1..9: note = epitope) [compound 1777]
epitope sequence binding to IgE antibody, rank (Key/Preferably/More preferably) [1]: Key

Substance: 1778 (KVGY; REGION 1..4: note = epitope) [compound 1778]
epitope sequence binding to IgE antibody, rank (Key/Preferably/More preferably) [1]: Key

Substance: 1780 (YLKKVG; REGION 1..6: note = epitope) [compound 1780]
epitope sequence binding to IgE antibody, rank (Key/Preferably/More preferably) (serum of patient G3 (adult, general immediate type allergy to wheat)): Key

Substance: 1781 (KEVSSYLKKV; REGION 1..10: note = epitope) [compound 1781]
epitope sequence binding to IgE antibody, rank (Key/Preferably/More preferably) [2]: Key

Substance: 1782 (VSSYLKKVGY; REGION 1..10: note = epitope) [compound 1782]
epitope sequence binding to IgE antibody, rank (Key/Preferably/More preferably) [2]: Key

Substance: 1783 (KVGYNP; REGION 1..6: note = epitope) [compound 1783]
epitope sequence binding to IgE antibody, rank (Key/Preferably/More preferably) [2]: Key

Substance: 1784 (LKKVGYNP; REGION 1..8: note = epitope) [compound 1784]
epitope sequence binding to IgE antibody, rank (Key/Preferably/More preferably) (serum of patient G5 (adult, general immediate type allergy to wheat)): Key

Substance: 1785 (LKKVGYNP; REGION 1..8: note = epitope) [compound 1785]
epitope sequence binding to IgE antibody, rank (Key/Preferably/More preferably) [3]: Key

Substance: 1786 (KEVSSYLKK; REGION 1..9: note = epitope) [compound 1786]
epitope sequence binding to IgE antibody, rank (Key/Preferably/More preferably) [4]: Preferably

Substance: 1787 (KEVSSYLK; REGION 1..8: note = epitope) [compound 1787]
epitope sequence binding to IgE antibody, rank (Key/Preferably/More preferably) [4]: Key

Substance: 1788 (LKKVGYNP; REGION 1..8: note = epitope) [compound 1788]
epitope sequence binding to IgE antibody, rank (Key/Preferably/More preferably) [4]: Key

Substance: 1790 (SGKELE; REGION 1..6: note = epitope) [compound 1790]
epitope sequence binding to IgE antibody, rank (Key/Preferably/More preferably) (serum of patient P3 (WDEIA)): Key

Substance: 1791 (PKFL; REGION 1..4: note = epitope) [compound 1791]
epitope sequence binding to IgE antibody, rank (Key/Preferably/More preferably) (serum of patient P3 (WDEIA)): Key

Substance: 1792 (SGKELE; REGION 1..6: note = epitope) [compound 1792]
epitope sequence binding to IgE antibody, rank (Key/Preferably/More preferably) (serum of patient P8 (WDEIA)): Key

Substance: 1793 (SGKELEALPK; REGION 1..10: note = epitope) [compound 1793]
epitope sequence binding to IgE antibody, rank (Key/Preferably/More preferably) (serum of patient P9 (WDEIA)): Key

Substance: 1796 (SGKELEALPK; REGION 1..10: note = epitope) [compound 1796]
epitope sequence binding to IgE antibody, rank (Key/Preferably/More preferably) (serum of patient P15 (WDEIA)): Preferably

Substance: 1798 (EALPKFLKN; REGION 1..9: note = epitope) [compound 1798]
epitope sequence binding to IgE antibody, rank (Key/Preferably/More preferably) (serum of patient P15 (WDEIA)): Preferably

Substance: 1799 (KFLK; REGION 1..4: note = epitope) [compound 1799]
epitope sequence binding to IgE antibody, rank (Key/Preferably/More preferably) (serum of patient P15 (WDEIA)): Key

Substance: 1800 (KELEALPK; REGION 1..8: note = epitope) [compound 1800]
epitope sequence binding to IgE antibody, rank (Key/Preferably/More preferably) (serum of patient P17 (WDEIA)): Key

Substance: 1801 (LEALPKFLKN; REGION 1..10: note = epitope) [compound 1801]
epitope sequence binding to IgE antibody, rank (Key/Preferably/More preferably) (serum of patient P17 (WDEIA)): Key

Substance: 1802 (SGKELEALPK; REGION 1..10: note = epitope) [compound 1802]
epitope sequence binding to IgE antibody, rank (Key/Preferably/More preferably) (serum of patient P18 (WDEIA)): Preferably

Substance: 1803 (SGKELE; REGION 1..6: note = epitope) [compound 1803]
epitope sequence binding to IgE antibody, rank (Key/Preferably/More preferably) (serum of patient P18 (WDEIA)): Key

Substance: 1804 (KFLKN; REGION 1..5: note = epitope) [compound 1804]
epitope sequence binding to IgE antibody, rank (Key/Preferably/More preferably) (serum of patient P18 (WDEIA)): Key

Substance: 1806 (ELEALPK; REGION 1..7: note = epitope) [compound 1806]
epitope sequence binding to IgE antibody, rank (Key/Preferably/More preferably) (serum of patient P22 (WDEIA)): Key

Substance: 1807 (PKFLKNG; REGION 1..7: note = epitope) [compound 1807]
epitope sequence binding to IgE antibody, rank (Key/Preferably/More preferably) (serum of patient P22 (WDEIA)): Key

Substance: 1809 (ELEALPKFL; REGION 1..9: note = epitope) [compound 1809]
epitope sequence binding to IgE antibody, rank (Key/Preferably/More preferably) (serum of patient P26 (WDEIA)): Preferably
